Results taken from patent publication US7820825B2, “N-substituted-azacyclylamines as histamine-3 antagonists” (Wyeth LLC, priority 2006, dated 2010).

melting point [°C]	Compound
101 to 105	CN(C)[C@H]1CCN(C(=O)c2ccc(Cc3cn(C)c4ccccc34)cc2)C1 [Example 230, (3S)-N,N-dimethyl-1-{4-[(1-methyl-1H-indol-3-yl)methyl]benzoyl}pyrrolidin-3-amine]
73 to 78	Cn1cc(Cc2ccc(C(=O)N3CC[C@H](N4CCCC4)C3)cc2)c2ccccc21 [Example 229, (3′S)-1-{4-[(1-methyl-1H-indol-3-yl)methyl]benzoyl}-1,3′-bipyrrolidine]
